Laboratory results published in ChEMBL document CHEMBL5385917, “Irpetones A and B, Anti-Osteoclastic Heptaketides from a Marine Mesophotic Zone Ircinia Sponge-Associated Fungus Irpex sp. NBUF088” (J Nat Prod, 2024).
Active and inactive are the calls of the source. The rule behind the calls is not given here.

Legend:
BMMC [1] = test: Inhibition of RANKL-induced JNK1/2 phosphorylation in mouse BMMC cells by Western blot analysis; assay type: cell-based; settings: dose 0.5-1.5 µM
BMMC [2] = test: Anti-osteoclastogenic activity in mouse BMMC cells assessed as inhibition of RANKL mediated osteoclast differentiation by TRAP activity; assay type: functional, cell-based
BMMC [3] = test: Inhibition of RANKL-induced NFkappaB signaling in mouse BMMC cells assessed as inhibition of NFkappab nuclear translocation at 5 to 10 uM by Western blot analysis; assay type: cell-based; settings: dose 5-10 µM
[4] = target: Mitogen-activated protein kinase 1 and 3 (ERK2 and ERK1) (Mus musculus) (UniProt P63085+Q63844); test: Inhibition of RANKL-induced ERK1/2 phosphorylation in mouse BMMC cells by Western blot analysis; assay type: cell-based; settings: dose 0.5-1.5 µM
[5] = Selectivity index, ratio of CC50 for cytotoxicity against mouse BMMC cells to IC50 for anti-osteoclastogenic activity in mouse BMMC cells; assay type: toxicity, cell-based; settings: read-out: Ratio CC50/IC50
[6] = Cytotoxicity against mouse BMMC cells assessed as inhibition of cell growth incubated for 48 hrs by MTT assay; assay type: toxicity, cell-based
[7] = target: MAP kinase p38 (Mus musculus) (UniProt P47811+O08911+Q9WUI1+Q9Z1B7); test: Inhibition of RANKL-induced p38 MAPK phosphorylation in mouse BMMC cells by Western blot analysis; assay type: cell-based; settings: dose 0.5-1.5 µM

Chain of Mitogen-activated protein kinase 1 and 3 (ERK2 and ERK1) (Mus musculus) (P63085 whole entry, looked up): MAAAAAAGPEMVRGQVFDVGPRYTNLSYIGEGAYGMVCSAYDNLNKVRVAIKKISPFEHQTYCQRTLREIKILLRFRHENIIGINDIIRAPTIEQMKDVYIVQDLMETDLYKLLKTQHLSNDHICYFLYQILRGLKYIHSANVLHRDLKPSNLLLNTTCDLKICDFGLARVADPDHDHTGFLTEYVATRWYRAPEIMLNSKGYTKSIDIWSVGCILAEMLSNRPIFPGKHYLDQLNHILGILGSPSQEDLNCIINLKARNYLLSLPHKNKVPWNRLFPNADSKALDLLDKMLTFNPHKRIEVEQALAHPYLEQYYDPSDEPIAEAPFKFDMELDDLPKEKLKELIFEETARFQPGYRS
Chain of Mitogen-activated protein kinase 1 and 3 (ERK2 and ERK1) (Mus musculus) (Q63844 whole entry, looked up): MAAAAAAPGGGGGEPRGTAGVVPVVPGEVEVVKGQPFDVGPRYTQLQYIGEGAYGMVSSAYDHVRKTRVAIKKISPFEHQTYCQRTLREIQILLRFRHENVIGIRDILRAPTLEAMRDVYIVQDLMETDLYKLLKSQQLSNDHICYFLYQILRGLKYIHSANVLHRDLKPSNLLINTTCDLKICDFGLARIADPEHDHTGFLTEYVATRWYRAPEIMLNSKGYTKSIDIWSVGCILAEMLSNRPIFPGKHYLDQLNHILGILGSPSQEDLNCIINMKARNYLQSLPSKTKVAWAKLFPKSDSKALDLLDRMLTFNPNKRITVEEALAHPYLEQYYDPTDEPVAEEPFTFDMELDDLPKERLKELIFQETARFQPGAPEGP

- inhibition [4]: Dose-Dependent Effect
- inhibition [7]: Dose-Dependent Effect
Structure (SMILES): C[C@@H]1C=C2C=C[C@@](C)(O)[C@]3(C)C(=O)[C@@](O)(CO)O[C@@H](C1)[C@@H]23
- inhibition (BMMC [1]): Dose-Dependent Effect
- IC50 (BMMC [2]): 6.3 µM
- inhibition (BMMC [3]): Active
- selectivity ratio [5]: > 4.8
- CC50 at 48 h [6]: > 30 µM
